Laboratory results taken from patent publication US7399583B2, “Method for the identification of inhibitors of the binding of ARE-containing mRNA and a HuR protein” (Novartis AG, priority 2002, dated 2008).

What was measured:
full length HuR = target: T1, full length HuR (Homo sapiens, UniProt Q15717); assay: Deduction of the HuR binding site: affinities of RNA fragments to full length HuR
T1 construct: made in house; host or cells: E. coli ER2566
Procedure: Individual RNA fragments are synthesized and the affinities (given as Kd values) to full length HuR are determined (see TABLE 2). […] An influence of the fluorescent dye is excluded by competition experiments with unlabeled RNA fragments. […] Fragments 5, 6, 7a-7d and 8a-8c serve to tests tolerance for non-Uracil (exemplified by A=adenine) and C, respectively, at the depicted (bold and underlined) positions. […] This interaction appears to follow an all-or-nothing mechanism: While sequences with single mismatches are not recognized, sequences fulfilling this motif are bound with high affinity and an invariable Kd, Kdfund, of 0.99 nM.

[1] = target: T2, sfl-HuR (soluble form of full length HuR) (Homo sapiens, UniProt Q15717); assay: 2D-FIDA-r anisotropy assay: titration of fluorescently labeled ARE RNA fragments against sfl-HuR; format: binding; settings: 2D-FIDA-r assay, RNA fragment 5'-terminally labeled with 5'-carboxy-TMR; for Kd: read-out: Kd sfl-HuR in nM +/- St. dev.
T2 construct: made in house; host or cells: E. coli ER2566
T2 sequence (Q15717 whole entry, the tested form may be a part): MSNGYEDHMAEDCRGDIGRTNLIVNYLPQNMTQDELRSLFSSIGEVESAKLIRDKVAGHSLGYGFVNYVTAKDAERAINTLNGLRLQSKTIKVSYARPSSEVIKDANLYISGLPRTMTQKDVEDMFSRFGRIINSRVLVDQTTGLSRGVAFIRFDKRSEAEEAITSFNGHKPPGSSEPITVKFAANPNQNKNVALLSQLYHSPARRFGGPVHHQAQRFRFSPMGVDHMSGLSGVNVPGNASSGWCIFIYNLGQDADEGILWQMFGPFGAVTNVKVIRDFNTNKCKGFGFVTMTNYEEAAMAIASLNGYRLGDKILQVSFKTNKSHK
Procedure: (§1) In a preferred embodiment an assay of the present invention is performed by use of 2 dimensional-FIDA anisotropy analysis, wherein the fluorescence anisotropy of the complex between mRNA and HuR is determined at single molecule sensitivity by extension of the microscopic confocal detection setup to two polarisation channels.
(§2) Titration of fluorescently labeled RNA fragments corresponding to the AREs of, for example, IL-2, IL-4, IL-8, Cox-2, IL-1β or TNF-α (5′-terminally labeled with 5′-carboxy-TMR and 33, 58, 26, 35, 33 and 34 nts in length, respectively), against increasing concentrations of a soluble form of recombinant full-length HuR or HuR12 is performed.
(§3) In vitro, individual AU rich elements are bound to HuR with different affinity, although they are derived from mRNA targets which are known to be associated with HuR-mediated regulation. This fragment selectivity is retained when the third RRM as well as the hinge region are missing as is the case for HuR12. […] However, the full length protein binds to all fragments with a higher affinity. The Kd is lower by an almost constant factor of 50. In contrast, the low affinity fragments (Kd for HuR12>1 μM) are no longer recognized by the full length protein at all (see TABLE 1).

HuR12 = target: T3, HuR12 (Homo sapiens, UniProt Q15717); assay: 2D-FIDA-r anisotropy assay: titration of fluorescently labeled ARE RNA fragments against HuR12; format: binding; settings: 2D-FIDA-r assay, RNA fragment 5'-terminally labeled with 5'-carboxy-TMR; for Kd: read-out: Kd HuR12 in nM +/- St. dev.
T3 construct: Mxe-intein-CBD tag (IMPACT-TWIN, pTWIN1) (C, cleaved yes); 2-MESNA thioester on the C-terminal carboxyl group (>95% of the material); made in house; host or cells: E. coli ER2566 (pTWIN1/HuR12)
T3 sequence (Q15717 2-189): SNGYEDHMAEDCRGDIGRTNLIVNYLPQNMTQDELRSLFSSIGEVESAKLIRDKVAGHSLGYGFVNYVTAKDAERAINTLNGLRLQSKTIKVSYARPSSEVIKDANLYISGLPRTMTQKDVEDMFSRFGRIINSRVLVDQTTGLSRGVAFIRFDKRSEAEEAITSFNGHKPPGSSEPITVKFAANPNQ
Procedure: as §1, §2, §3

[2] = Solubility: no aggregation and precipitation in aqueous buffer (size exclusion chromatography and/or UV-spectroscopy); format: physicochemical; settings: aqueous buffer of physiological pH; for concentration at which no aggregation and precipitation is seen: spectroscopy-compatible conditions
Procedure: The concentration of protein used in an assay of the present invention depends on the binding affinity between a specific mRNA (fragment) and HuR, e.g. the protein concentration used in an assay of the present invention may be lower in case there is a high binding affinity between the two species or vice versa. Solvent include aqueous solvent, e.g. buffer solution, e.g. aqueous physiological buffer solution.
Expression of the cloned HuR-Intein-CBD fusion protein is induced by addition of 1 mM IPTG to a bacterial culture grown to late-logarithmic phase in LB broth medium and allowed to proceed for 6 hours at 28°. The bacterial cells are lysed by successive freezing/thawing cycles in a buffer of 20 mM Tris/Cl pH 8.0, 800 mM NaCl, 1 mM EDTA and 0.2% Pluronic F-127 (Molecular Probes). After DNA digestion, the bacterial lysates are cleared by ultracentrifugation and the fusion protein is captured onto chitin agarose beads (New England Biolabs) via the CBD. After extensive washing of the beads with lysis buffer, the recombinant protein is recovered by thiol-induced on-column self-splicing of the intein tag by addition of Na-2-MESNA to a final concentration of 50 mM and incubation for 12 hours at 4°. Any co-eluted intein tag and un-cleaved fusion protein are removed from the eluate in a second, subtractive affinity step. […]
The quality of the purified protein is controlled by denaturing SDS-PAGE, UV-spectroscopy, analytical Size Exclusion Chromatography, RP-HPLC analysis, LC/ESI-MS analysis and CD-spectroscopy, following standard protocols as described in example 2. […] Results from UV-spectroscopy, showing no absorbance at >330 nm, and analytical size exclusion chromatography, where HuR elutes as a single peak with a maximum at 24.2 kD, provide evidence that no higher aggregation states of the protein are present at the given buffer concentrations.
The folding of the protein after the purification procedure as well as following fluorescent labeling is monitored by CD-Spectroscopy.

T1 sequence (Q15717 whole entry, the tested form may be a part): as the sequence (Q15717 whole entry, the tested form may be a part) above

In the case of “4a (AUUUAUUUAUUUA; chemistry not given here)”, the Kd (full length HuR; binding to full length HuR) is reported as 1.4 nM and the “Kd (in nM)” value (full length HuR; binding to full length HuR) is reported as “not bound”.
For “4c (AUUUAUUUAUUUA; chemistry not given here)”, the “Kd (in nM)” value (full length HuR; binding to full length HuR) was “not bound”.
In the case of “4d (AUUUAUUUAUUUA; chemistry not given here)”, the “Kd (in nM)” value (full length HuR; binding to full length HuR) is reported as “not bound”.
For “AUUAUUAUUAUUAUUA (chemistry not given here) [(AUU)5A]”, the “Kd sfl-HuR in nM +/- St. dev.” value [1] was “n.b” and the Kd (HuR12) was 1590 nM.
Work on “AUUAUUUAUUAUUUAUUUAUUAUUUAUUUAUUUA (chemistry not given here) [TNF-α, synthetic RNA fragment of the TNF-α ARE, 5'-terminally labeled with 5'-carboxy-TMR]” yielded a Kd [1] of 0.35 nM and a Kd (HuR12) of 21.4 nM.
Substance “AUUUAUUUAUUUAUUUA (chemistry not given here) [(AUUU)4A]” has a Kd [1] of 2.09 nM and a Kd (HuR12) of 126 nM.
“AUUUAUUUAUUUAUUUAUUUA (chemistry not given here) [(AUUU)5A]” gave a Kd [1] of 0.4 nM and a Kd (HuR12) of 23.5 nM.
In the case of “AUUUUAAUUUAUGAGUUUUUGAUAGCUUUAUUUUUUAAGUAUUUAUAUAUUUAUAA (chemistry not given here) [IL-4, synthetic RNA fragment of the IL-4 ARE, 5'-TMR labeled]”, the Kd [1] is reported as 3.21 nM and the Kd (HuR12) is reported as 154 nM.
In the case of “HuR12: HuR variant encompassing the first two RRMs, aa1-189 or aa2-189 of SEQ ID NO:1”, the “concentration at which no aggregation and precipitation is seen” value [2] is reported as > 100 µM.
With “UAGAGUUCAUCGCAAUUGCAC (chemistry not given here) [irrelevant seq., reference compound]” the “Kd sfl-HuR in nM +/- St. dev.” value [1] was “n.b” and the “Kd HuR12 in nM +/- St. dev.” value (HuR12) was “n.b”.
Substance “UAUUAAUUUAAUUAUUUAAUAAUAUUUAUAUUAAA (chemistry not given here) [Cox-2 (2), synthetic RNA fragment of the Cox-2 ARE, 5'-TMR labeled]” has a Kd [1] of 13.6 nM and a Kd (HuR12) of 229 nM.
“UAUUUAUUAUUUAUGUAUUUAUUUAA (chemistry not given here) [IL-8, synthetic RNA fragment of the IL-8 ARE, 5'-TMR labeled]” showed a Kd [1] of 1.09 nM and a Kd (HuR12) of 42.9 nM.
Work on “UAUUUAUUUAAAUAUUUAAAUUUUAUAUUUAUU (chemistry not given here) [IL-2, synthetic RNA fragment of the IL-2 ARE, 5'-TMR labeled]” yielded a Kd [1] of 9.5 nM and a Kd (HuR12) of 498 nM.
Work on “UAUUUAUUUAUUUAUUUGUUUGUUUGUUUUAUU (chemistry not given here) [IL-1β, synthetic RNA fragment of the IL-1β ARE, 5'-TMR labeled]” yielded a Kd [1] of 0.12 nM and a Kd (HuR12) of 18.4 nM.
In the case of polyU [reference compound], the “binding / recognition by HuR (in words)” value (full length HuR; full length HuR) is reported as “bound by HuR with high affinity”.
For “sfl-HuR: full-length human HuR (SEQ ID NO:1 or 2) whose C-terminal amino acid is esterified by Na-2-MESNA as a thioester”, the “concentration at which no aggregation and precipitation is seen” value [2] was > 0.5 µM.
With “wild-type full length HuR: unmodified wild-type full length HuR protein” the “solubility in aqueous solvent (in words)” value ([2]; without micelle-forming detergents or glycerol, protein >0.5 μM) was “practically insoluble”.
